From patent US10238670B2, “9-aminomethyl minocycline compounds and methods of use thereof in urinary tract infection (UTI) treatment” (Paratek Pharmaceuticals, Inc., priority 2016, dated 2019)
≈ marks a conversion by molar mass, not a printed value.

Key:
Experiment in all cases: In vitro MIC, 2010 surveillance isolates
Acinetobacter spp = format: cell-based
K. pneumoniae ESBL+ = format: cell-based, Klebsiella pneumoniae
E. coli ESBL+ = format: cell-based, Escherichia coli
E. cloacae CeftazS = format: cell-based; set-up: MIC90: unit: µg/mL
Enterobacter spp = format: cell-based
E. coli ESBL− = format: cell-based, Escherichia coli
A. baumanii = format: cell-based
K. pneumoniae ESBL− = format: cell-based, Klebsiella pneumoniae
E. cloacae CeftazR = format: cell-based
K. oxytoca = format: cell-based

Question: How did the “% R (resistance)” value (Acinetobacter spp; Asia/Pac, Eucast breakpoints) turn out when `C[C@@H](O)[C@H]1C(=O)N2C(C(=O)O)=C(SCCN=CN)C[C@H]12` [Imipenem] was run?
Answer: 11.1%

Question: And the “% R (resistance)” value (Acinetobacter spp; Europe, Eucast breakpoints)?
Answer: 30.2%

Question: And the MIC90 (Acinetobacter spp; Europe, N=43)?
Answer: > 8 µg/mL

Question: What about the “% R (resistance)” value (Acinetobacter spp; L. Amer, CLSI breakpoints) of the same compound?
Answer: 44.4%

Question: And the “% R (resistance)” value (Acinetobacter spp; N America, CLSI breakpoints)?
Answer: 4.8%

Question: What about the MIC90 (Acinetobacter spp; N America, N=42) of the same compound?
Answer: 8 µg/mL (≈ 26.7 µM)

Question: What about the “% R (resistance)” value (K. pneumoniae ESBL+; Asia/Pac, Eucast breakpoints) of the same compound?
Answer: 10.5%

Question: And the MIC90 (K. pneumoniae ESBL+; Asia/Pac, N=124)?
Answer: > 8 µg/mL

Question: And the “% R (resistance)” value (K. pneumoniae ESBL+; Europe, Eucast breakpoints)?
Answer: 7.9%

Question: What about the MIC90 (K. pneumoniae ESBL+; Europe, N=151) of the same compound?
Answer: 2 µg/mL (≈ 6.68 µM)

Question: What about the “% R (resistance)” value (K. pneumoniae ESBL+; L. Amer, CLSI breakpoints) of the same compound?
Answer: 18.7%

Question: What about the MIC90 (K. pneumoniae ESBL+; L. Amer, N=209) of the same compound?
Answer: > 8 µg/mL

Question: What about the “% R (resistance)” value (K. pneumoniae ESBL+; N America, CLSI breakpoints) of the same compound?
Answer: 26.9%

Question: And the MIC90 (K. pneumoniae ESBL+; N America, N=108)?
Answer: > 8 µg/mL

Question: What about the “% R (resistance)” value (E. coli ESBL+; Asia/Pac, Eucast breakpoints) of the same compound?
Answer: 0.5%

Question: And the MIC90 (E. coli ESBL+; Asia/Pac, N=219)?
Answer: 0.25 µg/mL (≈ 0.835 µM)

Question: And the “% R (resistance)” value (E. coli ESBL+; Europe, Eucast breakpoints)?
Answer: 0%

Question: And the MIC90 (E. coli ESBL+; Europe, N=274)?
Answer: 0.25 µg/mL (≈ 0.835 µM)

Question: And the “% R (resistance)” value (E. coli ESBL+; L. Amer, CLSI breakpoints)?
Answer: 0.6%

Question: And the MIC90 (E. coli ESBL+; L. Amer, N=168)?
Answer: 0.25 µg/mL (≈ 0.835 µM)

Question: And the “% R (resistance)” value (E. coli ESBL+; N America, CLSI breakpoints)?
Answer: 0%

Question: And the MIC90 (E. coli ESBL+; N America, N=134)?
Answer: 0.25 µg/mL (≈ 0.835 µM)

Question: And the MIC90 (E. cloacae CeftazS; Asia/Pac, N=100)?
Answer: 1 (1)

Question: And the “% R (resistance)” value (E. cloacae CeftazS; Europe, Eucast breakpoints)?
Answer: 0%

Question: What about the MIC90 (E. cloacae CeftazS; Europe, N=183) of the same compound?
Answer: 0.5 µg/mL (≈ 1.67 µM)

Question: What about the “% R (resistance)” value (E. cloacae CeftazS; L. Amer, CLSI breakpoints) of the same compound?
Answer: 0%

Question: What about the MIC90 (E. cloacae CeftazS; L. Amer, N=57) of the same compound?
Answer: 0.5 µg/mL (≈ 1.67 µM)

Question: What about the “% R (resistance)” value (E. cloacae CeftazS; N America, CLSI breakpoints) of the same compound?
Answer: 0%

Question: And the MIC90 (E. cloacae CeftazS; N America, N=210)?
Answer: 0.5 µg/mL (≈ 1.67 µM)

Question: What about the “% R (resistance)” value (Enterobacter spp; Asia/Pac, Eucast breakpoints) of the same compound?
Answer: 0%

Question: What about the MIC90 (Enterobacter spp; Asia/Pac, N=52) of the same compound?
Answer: 1 µg/mL (≈ 3.34 µM)

Question: And the “% R (resistance)” value (Enterobacter spp; Europe, Eucast breakpoints)?
Answer: 0%

Question: What about the MIC90 (Enterobacter spp; Europe, N=82) of the same compound?
Answer: 1 µg/mL (≈ 3.34 µM)

Question: What about the “% R (resistance)” value (Enterobacter spp; L. Amer, CLSI breakpoints) of the same compound?
Answer: 0%

Question: And the MIC90 (Enterobacter spp; L. Amer, N=42)?
Answer: 1 µg/mL (≈ 3.34 µM)

Question: And the “% R (resistance)” value (Enterobacter spp; N America, CLSI breakpoints)?
Answer: 1 (1) %

Question: What about the MIC90 (Enterobacter spp; N America, N=101) of the same compound?
Answer: 1 (1)

Question: And the “% R (resistance)” value (E. coli ESBL−; Asia/Pac, Eucast breakpoints)?
Answer: 0%

Question: What about the MIC90 (E. coli ESBL−; Asia/Pac, N=282) of the same compound?
Answer: ≤ 0.12 µg/mL

Question: And the “% R (resistance)” value (E. coli ESBL−; Europe, Eucast breakpoints)?
Answer: 0%

Question: What about the MIC90 (E. coli ESBL−; Europe, N=1533) of the same compound?
Answer: ≤ 0.12 µg/mL

Question: And the “% R (resistance)” value (E. coli ESBL−; L. Amer, CLSI breakpoints)?
Answer: 0%

Question: What about the MIC90 (E. coli ESBL−; L. Amer, N=389) of the same compound?
Answer: ≤ 0.12 µg/mL

Question: What about the “% R (resistance)” value (E. coli ESBL−; N America, CLSI breakpoints) of the same compound?
Answer: 0%

Question: And the MIC90 (E. coli ESBL−; N America, N=1172)?
Answer: ≤ 0.12 µg/mL

Question: And the “% R (resistance)” value (A. baumanii; Asia/Pac, Eucast breakpoints)?
Answer: 72.4%

Question: What about the MIC90 (A. baumanii; Asia/Pac, N=275) of the same compound?
Answer: > 8 µg/mL

Question: And the “% R (resistance)” value (A. baumanii; Europe, Eucast breakpoints)?
Answer: 66.2%

Question: And the MIC90 (A. baumanii; Europe, N=145)?
Answer: > 8 µg/mL

Question: And the “% R (resistance)” value (A. baumanii; L. Amer, CLSI breakpoints)?
Answer: 75.6%

Question: What about the MIC90 (A. baumanii; L. Amer, N=275) of the same compound?
Answer: > 8 µg/mL

Question: What about the “% R (resistance)” value (A. baumanii; N America, CLSI breakpoints) of the same compound?
Answer: 53.2%

Question: What about the MIC90 (A. baumanii; N America, N=154) of the same compound?
Answer: > 8 µg/mL

Question: What about the “% R (resistance)” value (K. pneumoniae ESBL−; Asia/Pac, Eucast breakpoints) of the same compound?
Answer: 0%

Question: And the MIC90 (K. pneumoniae ESBL−; Asia/Pac, N=189)?
Answer: 0.5 µg/mL (≈ 1.67 µM)

Question: What about the “% R (resistance)” value (K. pneumoniae ESBL−; Europe, Eucast breakpoints) of the same compound?
Answer: 0%

Question: What about the MIC90 (K. pneumoniae ESBL−; Europe, N=361) of the same compound?
Answer: 0.25 µg/mL (≈ 0.835 µM)

Question: What about the “% R (resistance)” value (K. pneumoniae ESBL−; L. Amer, CLSI breakpoints) of the same compound?
Answer: 0%

Question: What about the MIC90 (K. pneumoniae ESBL−; L. Amer, N=160) of the same compound?
Answer: 0.25 µg/mL (≈ 0.835 µM)

Question: And the “% R (resistance)” value (K. pneumoniae ESBL−; N America, CLSI breakpoints)?
Answer: 0%

Question: And the MIC90 (K. pneumoniae ESBL−; N America, N=671)?
Answer: 0.25 µg/mL (≈ 0.835 µM)

Question: What about the “% R (resistance)” value (E. cloacae CeftazR; Asia/Pac, Eucast breakpoints) of the same compound?
Answer: 0%

Question: What about the MIC90 (E. cloacae CeftazR; Asia/Pac, N=63) of the same compound?
Answer: 1 µg/mL (≈ 3.34 µM)

Question: And the “% R (resistance)” value (E. cloacae CeftazR; Europe, Eucast breakpoints)?
Answer: 1.4%

Question: What about the MIC90 (E. cloacae CeftazR; Europe, N=72) of the same compound?
Answer: 1 µg/mL (≈ 3.34 µM)

Question: And the “% R (resistance)” value (E. cloacae CeftazR; L. Amer, CLSI breakpoints)?
Answer: 0%

Question: And the MIC90 (E. cloacae CeftazR; L. Amer, N=42)?
Answer: 0.5 µg/mL (≈ 1.67 µM)

Question: And the “% R (resistance)” value (E. cloacae CeftazR; N America, CLSI breakpoints)?
Answer: 11.7%

Question: What about the MIC90 (E. cloacae CeftazR; N America, N=77) of the same compound?
Answer: 8 µg/mL (≈ 26.7 µM)

Question: What about the “% R (resistance)” value (K. oxytoca; Asia/Pac, Eucast breakpoints) of the same compound?
Answer: 0%

Question: What about the MIC90 (K. oxytoca; Asia/Pac, N=17) of the same compound?
Answer: 0.5 µg/mL (≈ 1.67 µM)

Question: And the “% R (resistance)” value (K. oxytoca; Europe, Eucast breakpoints)?
Answer: 0%

Question: And the MIC90 (K. oxytoca; Europe, N=158)?
Answer: 0.25 µg/mL (≈ 0.835 µM)

Question: And the “% R (resistance)” value (K. oxytoca; L. Amer, CLSI breakpoints)?
Answer: 4%

Question: What about the MIC90 (K. oxytoca; L. Amer, N=25) of the same compound?
Answer: 0.25 µg/mL (≈ 0.835 µM)

Question: And the “% R (resistance)” value (K. oxytoca; N America, CLSI breakpoints)?
Answer: 0.6%

Question: What about the MIC90 (K. oxytoca; N America, N=177) of the same compound?
Answer: 0.25 µg/mL (≈ 0.835 µM)
